This passage reports DILI_severity_class and DILI_Concern results from ChEMBL document CHEMBL4028802, “DILIrank: the largest reference drug list ranked by the risk for developing drug-induced liver injury in humans” (Drug Discov Today, 2016).

Starred links: 1 amine or outer side, 2 acyl side, 3 side chain; linkers in the order of their positions; H or OH if unused. Positions of bridges follow the written chain, without caps; N, C: chain ends. Non-standard residues stand in square brackets, D forms with d. Residues, ends and D or L forms follow the SMILES beside them. *: point of attachment. hTyr(3S-OH,4S-OH,3'-OSO3H) = N[C@H](C(=O)O)[C@H](O)[C@@H](O)c1ccc(O)c(OS(=O)(=O)O)c1; Orn(4R-OH,5R-OH) = O=C([C@H](C[C@@H](O)[C@@H](O)N[*:3])N[*:1])[*:2]; Pro(3S-OH,4S-Me) = C[C@H]1CN[C@H](C(=O)O)[C@H]1O; X1 = CCCCCOc1ccc(-c2cc(-c3ccc(C(=O)*)cc3)no2)cc1; Gln(3R-OH) = NC(=O)C[C@@H](O)[C@H](N)C(=O)O; Hyp = O=C(O)[C@@H]1C[C@@H](O)CN1

For series [1], the species on record is Homo sapiens. In words: Liver toxicity in human assessed as induction of drug-induced liver injury by measuring severity class index.
Series [2] is filed under the species Homo sapiens. In words: Liver toxicity in human assessed as induction of drug-induced liver injury by measuring verified drug-induced liver injury concern status.
For DILI severity class in this document: key of the grades not given here.

Take `CN[C@@H](C)Cc1ccccc1` [METHAMPHETAMINE]: in the series filed under Homo sapiens [1], the DILI_severity_class worked out at 0. In addition, the DILI_Concern entry in the series listed under Homo sapiens [2] is “No-Dili-Concern”.
The corresponding values for `CC(=O)/N=c1/sc(S(N)(=O)=O)nn1C` [METHAZOLAMIDE] are 7 and “Less-Dili-Concern”.
With `C1N2CN3CN1CN(C2)C3.O=C(O)CNC(=O)c1ccccc1` [METHENAMINE HIPPURATE], the DILI_severity_class in the series listed under Homo sapiens [1] turned out to be 3. Moreover, the DILI_Concern entry in the series listed under Homo sapiens [2] is recorded as “Ambiguous-Dili-Concern”.
Turning to `CSCC[C@H](N)C(=O)O` [METHIONINE], in the series filed under Homo sapiens [1], the DILI_severity_class came out at 0. The DILI_Concern entry in the series filed under Homo sapiens [2] was “No-Dili-Concern”.
The like results for `COc1ccccc1OCC(O)COC(N)=O` (configuration not stated) [METHOCARBAMOL] were, in that order, 5 and “Ambiguous-Dili-Concern”.
The like results for `C=CCC1(C(C)C#CCC)C(=O)N=C(O)N(C)C1=O` (configuration not stated) [METHOHEXITAL] were, in that order, 3 and “Ambiguous-Dili-Concern”.
Turning to `CN(Cc1cnc2nc(N)nc(N)c2n1)c1ccc(C(=O)N[C@@H](CCC(=O)O)C(=O)O)cc1` [METHOTREXATE], in the series filed under Homo sapiens [1], the DILI_severity_class was determined as 3. The DILI_Concern result in the series listed under Homo sapiens [2] is recorded as “Most-Dili-Concern”.
The corresponding values for `COc1c2occc2cc2ccc(=O)oc12` [METHOXSALEN] are 3 and “Less-Dili-Concern”.
For the compound `C[N+]1(C)[C@@H]2C[C@@H](OC(=O)[C@H](CO)c3ccccc3)C[C@H]1[C@@H]1O[C@@H]12.[Br-]` [METHSCOPOLAMINE BROMIDE], the DILI_severity_class in the series filed under Homo sapiens [1] is 0. Also, in the series listed under Homo sapiens [2], the DILI_Concern entry was “No-Dili-Concern”.
The corresponding values for `CN1C(=O)CC(C)(c2ccccc2)C1=O` (configuration not stated) [METHSUXIMIDE] are 0 and “No-Dili-Concern”.
The corresponding values for `CN1C(CCl)Nc2cc(Cl)c(S(N)(=O)=O)cc2S1(=O)=O` (configuration not stated) [METHYCLOTHIAZIDE] are 2 and “Ambiguous-Dili-Concern”.
For the compound `C[C@](N)(Cc1ccc(O)c(O)c1)C(=O)O` [METHYLDOPA], the DILI_severity_class in the series listed under Homo sapiens [1] is 8. The DILI_Concern result in the series listed under Homo sapiens [2] was “Most-Dili-Concern”.
As for `CC[C@@H](CO)NC(=O)[C@@H]1C=C2c3cccc4[nH]cc(c34)C[C@H]2N(C)C1` [METHYLERGONOVINE], in the series filed under Homo sapiens [1], the DILI_severity_class worked out at 0. Besides, in the series listed under Homo sapiens [2], the DILI_Concern entry is listed as “No-Dili-Concern”.
On to `C[N+]1(CC2CC2)CC[C@]23c4c5ccc(O)c4O[C@H]2C(=O)CC[C@@]3(O)[C@H]1C5.[Br-]` (some centres not stated) [METHYLNALTREXONE BROMIDE], for which the DILI_severity_class in the series listed under Homo sapiens [1] is given as 0. In addition, the DILI_Concern result in the series listed under Homo sapiens [2] is given as “No-Dili-Concern”.
Consider `COC(=O)C(c1ccccc1)C1CCCCN1` (configuration not stated) [METHYLPHENIDATE], for which the DILI_severity_class in the series listed under Homo sapiens [1] amounted to 3. Besides, in the series filed under Homo sapiens [2], the DILI_Concern result is “Less-Dili-Concern”.
For `C[C@H]1C[C@@H]2[C@H]([C@@H](O)C[C@@]3(C)[C@H]2CC[C@]3(O)C(=O)CO)[C@@]2(C)C=CC(=O)C=C12` [METHYLPREDNISOLONE], the DILI_severity_class in the series filed under Homo sapiens [1] came to 3. Besides, the DILI_Concern result in the series listed under Homo sapiens [2] is reported as “Less-Dili-Concern”.
As for `C[C@]12CCC(=O)C=C1CC[C@@H]1[C@@H]2CC[C@@]2(C)[C@H]1CC[C@]2(C)O` [METHYLTESTOSTERONE], in the series listed under Homo sapiens [1], the DILI_severity_class is on record as 2. Also, in the series filed under Homo sapiens [2], the DILI_Concern result is recorded as “Less-Dili-Concern”.
The like results for `CC[C@@H](CO)NC(=O)[C@@H]1C=C2c3cccc4c3c(cn4C)C[C@H]2N(C)C1` [METHYSERGIDE] were, in that order, 0 and “No-Dili-Concern”.
For the compound `CCN(CC)CCNC(=O)c1cc(Cl)c(N)cc1OC` [METOCLOPRAMIDE], the DILI_severity_class in the series listed under Homo sapiens [1] was 5. In addition, in the series filed under Homo sapiens [2], the DILI_Concern entry is reported as “Less-Dili-Concern”.
The corresponding values for `Cc1ccccc1N1C(=O)c2cc(S(N)(=O)=O)c(Cl)cc2NC1C` (configuration not stated) [METOLAZONE] are 3 and “Ambiguous-Dili-Concern”.
As for `COCCc1ccc(OCC(O)CNC(C)C)cc1.COCCc1ccc(OCC(O)CNC(C)C)cc1.O=C(O)CCC(=O)O` (configuration not stated) [METOPROLOL SUCCINATE], the DILI_severity_class in the series filed under Homo sapiens [1] was determined as 3. Also, the DILI_Concern entry in the series filed under Homo sapiens [2] is on record as “Ambiguous-Dili-Concern”.
`COCCc1ccc(OCC(O)CNC(C)C)cc1` (configuration not stated) [METOPROLOL]: the DILI_severity_class in the series listed under Homo sapiens [1] is given as 5. The DILI_Concern result in the series listed under Homo sapiens [2] is listed as “Less-Dili-Concern”.
The corresponding values for `Cc1ncc([N+](=O)[O-])n1CCO` [METRONIDAZOLE] are 3 and “Less-Dili-Concern”.
The corresponding values for `CC(C)(C(=O)c1cccnc1)c1cccnc1` [METYRAPONE] are 0 and “No-Dili-Concern”.
As for `C[C@](N)(Cc1ccc(O)cc1)C(=O)O` [METYROSINE], the DILI_severity_class in the series filed under Homo sapiens [1] worked out at 0. Further, the DILI_Concern entry in the series filed under Homo sapiens [2] is on record as “No-Dili-Concern”.
The like results for `Cc1cccc(C)c1OCC(C)N` (configuration not stated) [MEXILETINE] were, in that order, 3 and “Most-Dili-Concern”.
The corresponding values for `CCCCCOc1ccc(-c2cc(-c3ccc(C(=O)N[C@H]4C[C@@H](O)[C@@H](O)NC(=O)[C@@H]5[C@@H](O)[C@@H](C)CN5C(=O)[C@H]([C@H](O)CC(N)=O)NC(=O)[C@H]([C@H](O)[C@@H](O)c5ccc(O)c(OS(=O)(=O)O)c5)NC(=O)[C@@H]5C[C@@H](O)CN5C(=O)[C@H]([C@@H](C)O)NC4=O)cc3)no2)cc1` [MICAFUNGIN] (X1-[Orn(4R-OH,5R-OH)]T[Hyp][hTyr(3S-OH,4S-OH,3'-OSO3H)][Gln(3R-OH)][Pro(3S-OH,4S-Me)]; lactam 1-C) are 7 and “Most-Dili-Concern”.
On to `Cc1ncc2n1-c1ccc(Cl)cc1C(c1ccccc1F)=NC2` [MIDAZOLAM], for which, in the series filed under Homo sapiens [1], the DILI_severity_class was determined as 0. Also, the DILI_Concern result in the series listed under Homo sapiens [2] is reported as “No-Dili-Concern”.
For `COc1ccc(OC)c(C(O)CNC(=O)CN)c1` (configuration not stated) [MIDODRINE], the DILI_severity_class in the series filed under Homo sapiens [1] worked out at 0. Further, the DILI_Concern result in the series filed under Homo sapiens [2] is recorded as “No-Dili-Concern”.
For `CC#C[C@]1(O)CC[C@H]2[C@@H]3CCC4=CC(=O)CCC4=C3[C@@H](c3ccc(N(C)C)cc3)C[C@@]21C` [MIFEPRISTONE], in the series listed under Homo sapiens [1], the DILI_severity_class worked out at 0. The DILI_Concern entry in the series filed under Homo sapiens [2] was “No-Dili-Concern”.
The like results for `OCCN1C[C@H](O)[C@@H](O)[C@H](O)[C@H]1CO` [MIGLITOL] were, in that order, 0 and “No-Dili-Concern”.
For `Cc1[nH]c(=O)c(C#N)cc1-c1ccncc1` [MILRINONE], the DILI_severity_class in the series filed under Homo sapiens [1] was determined as 3. The DILI_Concern result in the series listed under Homo sapiens [2] is on record as “Ambiguous-Dili-Concern”.
For the compound `CN(C)c1ccc(O)c2c1C[C@H]1C[C@H]3[C@H](N(C)C)C(O)=C(C(N)=O)C(=O)[C@@]3(O)C(O)=C1C2=O` [MINOCYCLINE], in the series listed under Homo sapiens [1], the DILI_severity_class is 8. Besides, in the series filed under Homo sapiens [2], the DILI_Concern result is reported as “Most-Dili-Concern”.
The like results for `Nc1cc(N2CCCCC2)nc(N)[n+]1[O-]` [MINOXIDIL] were, in that order, 0 and “No-Dili-Concern”.
The corresponding values for `CN1CCN2c3ncccc3Cc3ccccc3C2C1` (configuration not stated) [MIRTAZAPINE] are 3 and “Less-Dili-Concern”.
The like results for `Clc1ccc(C(c2ccccc2Cl)C(Cl)Cl)cc1` (configuration not stated) [MITOTANE] were, in that order, 0 and “No-Dili-Concern”.
Consider `O=C1c2c(O)ccc(O)c2C(=O)c2c(NCCNCCO)ccc(NCCNCCO)c21` [MITOXANTRONE], for which the DILI_severity_class in the series listed under Homo sapiens [1] came out at 3. Further, in the series filed under Homo sapiens [2], the DILI_Concern entry is recorded as “Less-Dili-Concern”.
The corresponding values for `NC(=O)C[S+]([O-])C(c1ccccc1)c1ccccc1` (configuration not stated) [MODAFINIL] are 3 and “Less-Dili-Concern”.
The like results for `CCOC(=O)[C@H](CCc1ccccc1)N[C@@H](C)C(=O)N1Cc2cc(OC)c(OC)cc2C[C@H]1C(=O)O` [MOEXIPRIL] were, in that order, 3 and “Ambiguous-Dili-Concern”.
`CC(C)(O)c1ccccc1CC[C@@H](SCC1(CC(=O)O)CC1)c1cccc(/C=C/c2ccc3ccc(Cl)cc3n2)c1` [MONTELUKAST]: the DILI_severity_class in the series filed under Homo sapiens [1] came out at 3. The DILI_Concern entry in the series filed under Homo sapiens [2] is reported as “Less-Dili-Concern”.
The like results for `CCOC(=O)Nc1ccc2c(c1)N(C(=O)CCN1CCOCC1)c1ccccc1S2` [MORICIZINE] were, in that order, 5 and “Ambiguous-Dili-Concern”.
The corresponding values for `CN1CC[C@]23c4c5ccc(O)c4O[C@H]2[C@@H](O)C=C[C@H]3[C@H]1C5` [MORPHINE] are 0 and “No-Dili-Concern”.
The corresponding values for `COc1c(N2C[C@@H]3CCCN[C@@H]3C2)c(F)cc2c(=O)c(C(=O)O)cn(C3CC3)c12` [MOXIFLOXACIN] are 8 and “Less-Dili-Concern”.
Consider `CC(=O)Oc1cc(C(C)C)c(OCCN(C)C)cc1C` [MOXISYLYTE], for which, in the series filed under Homo sapiens [1], the DILI_severity_class was determined as 8. Besides, the DILI_Concern result in the series listed under Homo sapiens [2] is reported as “Most-Dili-Concern”.
As to `COc1c(C)c2c(c(O)c1C/C=C(\C)CCC(=O)OCCN1CCOCC1)C(=O)OC2` [MYCOPHENOLATE MOFETIL], in the series listed under Homo sapiens [1], the DILI_severity_class was determined as 3. The DILI_Concern entry in the series listed under Homo sapiens [2] was “Less-Dili-Concern”.
On to `COc1c(C)c2c(c(O)c1C/C=C(\C)CCC(=O)O)C(=O)OC2` [MYCOPHENOLIC ACID], for which the DILI_severity_class in the series filed under Homo sapiens [1] amounted to 3. Moreover, in the series listed under Homo sapiens [2], the DILI_Concern entry is listed as “Ambiguous-Dili-Concern”.
The corresponding values for `CCCCCCC(C)(C)c1cc(O)c2c(c1)OC(C)(C)C1CCC(=O)CC21` (configuration not stated) [NABILONE] are 0 and “No-Dili-Concern”.
The corresponding values for `COc1ccc2cc(CCC(C)=O)ccc2c1` [NABUMETONE] are 3 and “Ambiguous-Dili-Concern”.
The like results for `CC(C)(C)NCC(O)COc1cccc2c1CC(O)C(O)C2` (configuration not stated) [NADOLOL] were, in that order, 3 and “Ambiguous-Dili-Concern”.
Consider `CCOc1ccc2ccccc2c1C(=O)N[C@@H]1C(=O)N2[C@@H]1SC(C)(C)[C@@H]2C(=O)O` [NAFCILLIN], for which, in the series filed under Homo sapiens [1], the DILI_severity_class is reported as 3. The DILI_Concern result in the series filed under Homo sapiens [2] was “Less-Dili-Concern”.
As for `Oc1ccc2c3c1O[C@H]1[C@@H](O)CC[C@@]4(O)[C@@H](C2)N(CC2CCC2)CC[C@]314` [NALBUPHINE], the DILI_severity_class in the series filed under Homo sapiens [1] is 0. Further, the DILI_Concern entry in the series filed under Homo sapiens [2] is “No-Dili-Concern”.
